Converted amounts (≈) assume the structure as drawn. Like-named read-outs stand apart in the source and are kept apart here.
Columns and labels:
[1] = test system: Hep-3B cells; assay: PTX anti-proliferative activity on Hep-3B cells in culture; assay type: cell-based, human
Description: In (A) PTX at different concentration from 0.1 to 1000 ng/ml was added to cultured Hep-3B cells After 72 hours of incubation cells were detached and counted. […] In (B) photographs (10× magnification) of Hep-3B cultured in presence of PTX showing its potent growth inhibition at concentration up to 25 ng/ml are reported.
To this end, different concentration of PTX (from 0.1 ng/ml to 1000 ng/ml) were added to culture medium.

[2] = test system: MIB-1/Ki67; assay: Immunohistochemistry of proliferation marker MIB-1/Ki67 in Hep-3B tumor of treated mice; assay type: in vivo, athymic nude-Foxn1nu mice; conditions: DMFAT-PTX at both dosages; free PTX 10 mg/kg
Description: After evaluation of conventional H&E stained, ten white sections were then obtained from each sample to be processed for immunohistochemical (IHC) staining. IHC was carried out automatically by means of Leica Bond MaxTM technology (Arginase, CK-PAN, CK7 and ANTI-EPATO) and Ventana Bench Mark Ultra (Ki-67): ANTI-HEPATO: antigen retrieval 30' EDTA, (dil. 1:300 clone […] Dako-Agilent); […] antigen retrieval 30' EDTA, (dil. 1:100 Clone SP156 Cell Marque […]. clone 30-9 Roche-Ventana); CK-PAN: antigen retrieval 5' Enzyma, (dil. 1:200 clone MNF116 Dako Agilent); CK-7: antigen retrieval 15' EDTA, dil. 1:100 clone OV-TL 12/20 Dako Agilent. All section stained was evaluated on NIKON ECLIPSE E 600 Microscopy equipped with OLYMPUS DP21 Camera.

[3] = test system: Hep-3B tumor; assay: In vivo anti-tumor activity, single-shot local injection next to sc Hep-3B tumor
Description: Five-week-old athymic nude-Foxn1nu mice were purchased from Envigo (Envigo, Bresso, Italy) and were housed under pathogen-free conditions. Experiments were reviewed and approved by the licensing and ethical committee of IZSLER (Istituto Zooprofilattico Sperimentale della Lombardia e dell'Emilia Romagna, Brescia, Italy) and by the Italian Ministry of Health.
In a preliminary experiment, 3 mice were injected subcutaneously (s.c.) with 5×10^6 Hep-3B cells in 100 ul of MTG in the right flank. Mice were observed daily to establish the day of tumor appearance and when the nodule was 1 cm in diameter, mice were sacrificed and tumor was removed and investigated to verify the HCC features by histological examination. […] In the first series of experiments, mice (n=6/group) were injected with 5×10^6 Hep-3B cells in the right flank (day 0). The tumors were allowed to grow to an average 0.5/0.7 cm in diameter corresponding to a tumor volume ranging from 65 to 179 mm^3 (median weight 120 mg) that were calculated using the formula 1/6πd^3 (13). […] Loading of PTX into just thawed DMFAT specimens were performed 20-30 minutes before injection as described above, adding 1 mg of PTX (around 166 μl of the stock PTX solution 6 mg/ml) to 1 ml of DMFAT and agitation. […] According to the ethical protocol, all the mice were sacrificed when the tumor nodule reached 2.0-2.5 cm in diameter (≥2 g of weight) or, whatever the diameter, sacrificed on day 60 after the transplant. […] Animals were euthanized with carbon dioxide inhalation, followed by cervical dislocation.

CC(=O)O[C@H]1C(=O)[C@@]2(C)[C@H]([C@H](OC(=O)c3ccccc3)[C@]3(O)C[C@H](OC(=O)[C@H](O)[C@@H](NC(=O)c4ccccc4)c4ccccc4)C(C)=C1C3(C)C)[C@]1(OC(C)=O)CO[C@@H]1C[C@@H]2O [PTX, Paclitaxel]
IC50, dose of PTX required to reduce 50% Hep-3B growth ([1]; 72 hours of incubation, cells detached and counted): 0.015 ± 0.003 µg/mL | IC50 ([1]; Homo sapiens, Hep3B, read-out: IC50, dose of PTX required to reduce 50% Hep-3B growth, 72 hours of incubation, cells detached and counted): 0.015 ± 0.002 µg/mL (≈ 0.0176 µM) | IC90 ([1]; Homo sapiens, Hep3B, read-out: IC90, dose of PTX required to reduce 90% Hep-3B growth, 72 hours of incubation, cells detached and counted): 0.025 ± 0.008 µg/mL (≈ 0.0293 µM) | IC50 ([1]; Homo sapiens, Hep3B, restated for comparison with tissue concentrations, read-out: IC50 of the PTX on Hep-3B cells): 0.015 µg/mL (≈ 0.0176 µM) | Ki67 expression in tumor [2]: Some reduction | Skin lesions / ulceration at the site of injection ([3]; 10 mg/kg (200 μg/200 μl), local sc injection): did not induce skin ulcers | Effect on tumor growth compared to CTRL ([3]; series A: 200 μl, PTX 10 mg/kg where present): No significant effect | % of mice cured ([3]; series A: PTX 200 μg (10 mg/kg) where present, tumor-free after 90 days): 0% | Day of sacrifice ([3]; series A: single shot 200 μl, PTX 200 μg (10 mg/kg) where present): 33 ± 3 | % of mice tumor-free ([3]; series A: single shot 200 μl, PTX 200 μg (10 mg/kg) where present, at 60 days): 0% | HCC (TW) (Grams ± SD) ([3]; series A: single shot 200 μl, PTX 200 μg (10 mg/kg) where present, tumor weight at sacrifice): 2.010 ± 0.377 Grams

— patent US20240415972A1, “MICROFRAGMENTED FAT TISSUE AS DRUG DELIVERY SYSTEM IN LIVER CANCER THERAPY” (LIPOGEMS INTERNATIONAL S.P.A., priority 2021, published 2024)
